From US11497731B2, “β-lactamase inhibitor” (NATIONAL UNIVERSITY CORPORATION TOKAI NATIONAL HIGHER …, priority 2018, dated 2022)
Where two headings read alike, the source gives them in different places.

Key:
IMP-1 = IMP-1 (Serratia marcescens, UniProt P52699); assay: Inhibition constant (Ki) measurement test, IMP-1; assay type: biochemical; conditions: imipenem substrate, enzyme 10 nM, 30° C., Lineweaver-Burk; read-out: Inhibition constant Ki IMP-1
Protocol: (§1) The inhibition constant (Ki) measurement test was performed in the following manner. The inhibition constant (Ki) was measured using various metallo-β-lactamases (final concentration: 10 nM). The imipenem decomposition activity (Δabs/min) at each point under the conditions of absorbance: 298 nm and temperature: 30° C. was measured by varying the concentration of imipenem as a substrate and the concentrations of test substances (compounds A to E) as inhibitors. Each measured value was fitted to the Lineweaver-Burk plot equation to calculate Ki.
(§2) The test was performed in the same manner as in Test Example 6, except that X2a, X2b, X2c, X2d, X3a, and X4 were used as test substances (inhibitors).

[1] = system: Empty vector (no class B lactamase produced), pBCSK (+)/E. coli DH5a; assay: Drug susceptibility test (MIC), empty vector strain; assay type: cell-based; conditions: Escherichia coli
NDM-1 = NDM-1 (Klebsiella pneumoniae, UniProt C7C422); assay: Inhibition constant (Ki) measurement test, NDM-1; assay type: biochemical; conditions: imipenem substrate, enzyme 10 nM, 30° C., Lineweaver-Burk; read-out: Inhibition constant Ki NDM-1
Protocol: as §1, §2

[2] = system: bacteria into which a plasmid encoding VIM-2 was introduced (pBCSK (+)/E. coli DH5a); assay: Drug susceptibility test (MIC), VIM-2-producing strain; assay type: cell-based; conditions: Escherichia coli
Protocol: (§3) Plates for drug susceptibility test measurement were prepared by using 96- or 384-well U-bottom plates, a Mueller-Hinton liquid medium, and antimicrobial drugs (ceftazidime (CAZ), imipenem (IPM), meropenem (MPM), doripenem (DPM), and biapenem (BPM)). A 1/2 antimicrobial drug dilution series was made up to well 11 of, for example, a 96-well U-bottom plate so that the leftmost well 1 of row A contained an antimicrobial drug at the maximum concentration, the antimicrobial drug concentration in well 2 to the right of well 1 was 1/2 of the maximum concentration, the antimicrobial drug concentration in well 3 to the right of well 2 was 1/4 of the maximum concentration, and so on. […] An antimicrobial drug dilution series was made in each of rows B and C in the same manner as in row A. Further, 10 μg/mL and 50 μg/mL of a test substance (compound A) were added to row B and row C, respectively (FIG. 1).
(§4) Bacteria into which a plasmid encoding a class B β-lactamase (metallo-β-lactamase (MBL): NDM-1, or VIM-2) was introduced (pBCSK (+)/E. coli DH5a) were used as test bacteria. The test bacteria were adjusted to 10^8 cfu/mL with a Mueller-Hinton medium. Further, the test bacteria were diluted 10-fold with a Mueller-Hinton medium (10^7 cfu/mL). 5 μl of the test bacteria was collected and inoculated into the plates for drug susceptibility test measurement. After overnight culture at 35° C., the growth of the test bacteria was visually checked. The concentration of the antimicrobial drug in a well containing the lowest concentration of the antimicrobial drug among the wells in which no growth of the test bacteria was confirmed was defined as the minimal inhibitory concentration value (FIG. 1).
(§5) The drug susceptibility test was performed in the same manner as in Test Example 1, except that compounds A to C and E to I were used as test substances.
(§6) The test was performed in the same manner as in Test Example 1, except that X2a, X2b, X2c, X2d, X3a, and X4 were used as test substances (inhibitors). The inhibitor concentration was 10 μg/mL.

[3] = system: strain of Escherichia coli in which a plasmid encoding a class B β-lactamase (IMP-1) was introduced; assay: Mouse abdominal infection model, E. coli IMP-1 strain; assay type: in vivo, mice
Protocol: After mice were infected with a laboratory strain (a strain of Escherichia coli in which a plasmid encoding a class B β-lactamase (IMP-1) was introduced), a test substance (compound A) was administered; and survival was observed. Specifically, the animal study was performed as follows.
The laboratory strain grown overnight on a Mueller-Hinton agar medium was scraped with a sterile swab, suspended in physiological saline, adjusted to 2-5×10^8 CFU/mL, and mixed with an equal amount of a 10% mucin solution (1-2.5×10^8 CFU/mL) to prepare a bacterial liquid. Mice (Crl:CD1(ICR), male, 4 weeks old (Charles River Laboratories Japan, Inc.)) acclimated for 4 days after arrival were weighed, and then infected by intraperitoneal administration of 250 μL of the prepared bacterial liquid per mouse. An antimicrobial drug (meropenem trihydrate (WAKO 137-15674)) and the test substance were dissolved in physiological saline. A first intraperitoneal administration of the antimicrobial drug (0.2 mg/kg) and/or the test substance (100 mg/kg) was performed 1 hour after infection. A second administration was performed 3 hours after infection, in the same manner as the first administration (up to this point, day 0). […]

[4] = system: strains of Enterobacteriaceae bacteria that produce class B β-lactamases; assay: Drug susceptibility test 2; assay type: cell-based; conditions: addition of compound A
[5] = system: class B β-lactamase (IMP-1, NDM-1, or VIM-2); assay: β-Lactamase inhibitory activity measurement test (imipenem decomposition); assay type: biochemical; conditions: test substance 0, 1, 10, 100 μM; enzyme 10 nM; imipenem 100 μM
Protocol: Each individual class B β-lactamase (IMP-1, NDM-1, or VIM-2; final concentration: 10 nM), imipenem (final concentration: 100 μM), and each individual test substance (compound A or compound Z shown below; final concentrations: 0, 1, 10, 100 μM) were mixed in an HEPES buffer. The imipenem decomposition activity (Dabs/min) under the conditions of absorbance: 298 nm and temperature: 30° C. was measured. The imipenem decomposition activity when no test substance was added was defined as 100%, and the imipenem residual decomposition activity when each test substance was individually added was plotted.

VIM-2 = VIM-2 (Escherichia coli, UniProt Q5U7L7); assay: Inhibition constant (Ki) measurement test, VIM-2; assay type: biochemical; conditions: imipenem substrate, enzyme 10 nM, 30° C., Lineweaver-Burk; read-out: Inhibition constant Ki VIM-2
Protocol: as §1, §2

[6] = system: bacteria into which a plasmid encoding NDM-1 was introduced (pBCSK (+)/E. coli DH5a); assay: Drug susceptibility test (MIC), NDM-1-producing strain; assay type: cell-based; conditions: Escherichia coli
Protocol: as §3, §4, §5, §6

[7] = system: strains of Acinetobacter that produce class B β-lactamases; assay: Drug susceptibility test 3; assay type: cell-based; conditions: addition of compound A
HeLa cells = assay: Toxicity evaluation test (MTT assay); assay type: cell-based; conditions: various concentrations
Protocol: Various concentrations of a test substance (compound A) or staurosporine were added to HeLa cells, and live cells were counted using an MTT assay kit (Promega Cat No. G4000).

[8] = system: β-lactamase-producing bacteria; assay: Drug susceptibility tests, summary statements over all strains; assay type: cell-based, E. coli; conditions: addition of the compound
Protocol: as §3, §4

[9] = Reverse mutation test (Ames test); assay type: cell-based; conditions: entrusted to UBE Scientific Analysis Laboratory, Inc.
From the text: Compound A was used as a test substance.

[10] = system: bacteria (K. pneumoniae) in which a plasmid encoding NDM and VIM was introduced; assay: Mouse abdominal infection model, K. pneumoniae NDM and VIM strain; assay type: in vivo, mice; conditions: antimicrobial drug 0.8 mg/kg or 4 mg/kg, test substance 10 mg/kg
Protocol: The laboratory strain grown overnight on a Mueller-Hinton agar medium was scraped with a sterile swab, suspended in physiological saline, adjusted to 2-5×10^8 CFU/mL, and mixed with an equal amount of a 10% mucin solution (1-2.5×10^8 CFU/mL) to prepare a bacterial liquid. Mice (Crl:CD1(ICR), male, 4 weeks old (Charles River Laboratories Japan, Inc.)) acclimated for 4 days after arrival were weighed, and then infected by intraperitoneal administration of 250 μL of the prepared bacterial liquid per mouse. An antimicrobial drug (meropenem trihydrate (WAKO 137-15674)) and the test substance were dissolved in physiological saline. A first intraperitoneal administration of the antimicrobial drug (0.2 mg/kg) and/or the test substance (100 mg/kg) was performed 1 hour after infection. A second administration was performed 3 hours after infection, in the same manner as the first administration (up to this point, day 0).
The animal study was performed in the same manner as in Test Example 12, except that in addition to a strain of Escherichia coli in which a plasmid encoding a class B lactamase (IMP-1) was introduced, bacteria (K. pneumoniae) in which a plasmid encoding NDM and VIM was introduced were used as a laboratory strain, compound I was administered as a test substance, […], and the dosage of the test substance was 10 mg/kg. […]

[11] = read-out: MIC CAZ + compound A (10 μg/ml)
[12] = read-out: MIC CAZ + compound A (50 μg/ml)
[13] = read-out: MIC MPM + compound A (10 μg/ml)
[14] = read-out: MIC MPM + compound A (50 μg/ml)

Chain of NDM-1 (C7C422 29-270, looked up, species assumed): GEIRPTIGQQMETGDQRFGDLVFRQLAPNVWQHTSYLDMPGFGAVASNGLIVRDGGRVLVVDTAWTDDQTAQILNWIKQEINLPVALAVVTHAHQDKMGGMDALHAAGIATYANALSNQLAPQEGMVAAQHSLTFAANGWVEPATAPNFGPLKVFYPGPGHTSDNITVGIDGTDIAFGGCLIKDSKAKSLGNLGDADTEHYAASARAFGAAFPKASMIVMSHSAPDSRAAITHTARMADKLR
Chain of IMP-1 (P52699 19-246, looked up, species assumed): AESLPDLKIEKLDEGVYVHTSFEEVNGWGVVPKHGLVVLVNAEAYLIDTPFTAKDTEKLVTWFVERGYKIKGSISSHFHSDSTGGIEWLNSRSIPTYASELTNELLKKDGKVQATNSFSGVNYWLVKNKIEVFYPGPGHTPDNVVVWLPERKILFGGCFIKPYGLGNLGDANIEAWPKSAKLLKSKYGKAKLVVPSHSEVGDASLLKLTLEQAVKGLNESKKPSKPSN

SMILES: Cc1oc(C)c(S(N)(=O)=O)c1C(=O)O [Compound A]
- Ki (IMP-1): 0.22 µM
- MIC [1, 11]: 0.25 µg/mL
- MIC [1, 12]: 0.25 µg/mL
- MIC [1, 13]: 0.016 µg/mL
- MIC [1, 14]: 0.016 µg/mL
- Ki (NDM-1): 9.82 µM
- MIC [2, 11]: 1 µg/mL
- MIC [2, 13]: 0.031 µg/mL
- MIC [2, 14]: 0.031 µg/mL
- survival rate (FIG. 10) ([3]; meropenem 0.2 mg/kg and test substance 100 mg/kg intraperitoneal, 1 and 3 hours after infection): notably improved
- effect on MICs of the antimicrobial drugs (FIG. 3) [4]: decreases the MICs
- β-lactamase inhibition (imipenem residual decomposition activity, FIG. 2) [5]: inhibit β-lactamases
- Ki (VIM-2): 2.8 µM
- MIC [6, 11]: 256 µg/mL
- MIC [6, 12]: 64 µg/mL
- MIC [6, 13]: 0.25 µg/mL
- effect on MICs of the antimicrobial drugs (FIG. 4) [7]: decreases the MICs
- toxicity (live cells, MTT, FIG. 9) (HeLa cells): very low
- effect on MICs of the antimicrobial drugs (statement on Tables 1, 2, 4) [8]: decreases the MICs
- Ames test result [9]: negative

SMILES: CCc1c(C(=O)O)c(S(N)(=O)=O)c(CC)n1C [Compound I]
- Ki (IMP-1): 2.14 µM
- Ki (NDM-1): 0.84 µM
- survival rate (FIG. 11) ([3]; antimicrobial drug 0.8 mg/kg or 4 mg/kg, test substance 10 mg/kg): notably improved
- Ki (VIM-2): 0.02 µM
- survival rate (FIG. 12) [10]: notably improved
